In patent US8703805B2 (Exelixis Patent Company LLC, priority 2005, dated 2014):

system: LXRα and/or LXRβ; test: LXR/LXRE co-transfection assay (luciferase reporter, CV-1 cells); format: cell-based, human; details: IC50 or EC50 for LXR (LXRα and/or LXRβ, not distinguished), tested as described in Example 109, CV-1 cells
Summary of the method: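 Transient co-transfection of CV-1 cells with full-length human LXRα or LXRβ plus RXRα expression plasmids and an LXREx1-Tk-luciferase reporter; compounds (10 μM screen, ≤1% DMSO) incubated 20 h at 37 °C. Luminescence read after lysis; EC50/IC50 from 8-point half-log curves, efficacy relative to a high control or DMSO.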

| EC50 | Molecule |
| --- | --- |
| 1000 to 10000 nM | CC(=O)c1ccc(-c2ccc(-c3cc(C(C)(C)O)nn3-c3ccccc3Cl)cc2)s1 [Example 1290, 1-(5-{4-[1-(2-chlorophenyl)-3-(1-hydroxy-1-methylethyl)-1H-pyrazole-5-yl]phenyl}-2-thienyl)ethanone] |
| < 1000 nM | CCc1ccccc1-n1nc(C(C)(C)O)cc1-c1ccc(-c2cccc(S(C)(=O)=O)c2)s1 [Example 1329, 2-[1-(2-ethylphenyl)-5-{5-[3-(methylsulfonyl)phenyl]-2-thienyl}-1H-pyrazol-3-yl]propan-2-ol] |
| 1000 to 10000 nM | CCOC(=O)COc1cccc(-c2ccc(-c3cc(C(C)(C)O)nn3-c3ccccc3Cl)cc2)c1 [Example 1297, ethyl ({4′-[1-(2-chlorophenyl)-3-(1-hydroxy-1-methylethyl)-1H-pyrazol-5-yl]biphenyl-3-yl}oxy)acetate] |
| 1000 to 10000 nM | CC(C)(O)c1cc(-c2ccc(-c3cccc(S(C)(=O)=O)c3)s2)n(-c2c(Cl)cc(Cl)cc2C(F)(F)F)n1 [Example 1341, 2-(1-[2,4-dichloro-6-(trifluoromethyl)phenyl]-5-{5-[3-(methylsulfonyl)phenyl]-2-thienyl}-1H-pyrazol-3-yl)propan-2-ol] |
| < 1000 nM | Cc1cccc(Cl)c1-n1nc(C(C)(C)O)cc1-c1ccc(-c2cccc(S(C)(=O)=O)c2)s1 [Example 1335, 2-[1-(2-chloro-6-methylphenyl)-5-{5-[3-(methylsulfonyl)phenyl]-2-thienyl}-1H-pyrazol-3-yl]propan-2-ol] |
| 1000 to 10000 nM | Cc1cc(-c2cc(C(C)(C)O)nn2-c2c(Cl)cccc2Cl)ccc1-c1cccc(S(C)(=O)=O)c1 [Example 1398, 2-(1-(2,6-dichlorophenyl)-5-(2-methyl-3′-(methylsulfonyl)biphenyl-4-yl)-1H-pyrazol-3-yl)propan-2-ol] |
| < 1000 nM | Cc1cc(-c2cccc(S(C)(=O)=O)c2)ccc1-c1c(Cl)c(C(C)(C)O)nn1-c1c(Cl)cccc1Cl [Example 1386, 2-(4-chloro-1-(2,6-dichlorophenyl)-5-(3-methyl-3′-(methylsulfonyl)biphenyl-4-yl)-1H-pyrazol-3-yl)propan-2-ol] |
| < 1000 nM | Cc1ccc(Cl)c(-n2nc(C(C)(C)O)cc2-c2ccc(-c3cccc(S(C)(=O)=O)c3)s2)c1Cl [Example 1325, 2-[1-(2,6-dichloro-3-methylphenyl)-5-{5-[3-(methylsulfonyl)phenyl]-2-thienyl}-1H-pyrazol-3-yl]propan-2-ol] |
| < 1000 nM | CC(C)(O)c1nn(-c2ccccc2Cl)c(-c2ccc(-c3cccc(S(C)(=O)=O)c3)s2)c1Br [Example 1278, 2-[4-bromo-1-(2-chlorophenyl)-5-{5-[3-(methylsulfonyl)phenyl]-2-thienyl}-1H-pyrazol-3-yl]propan-2-ol] |
| < 1000 nM | CC(C)(O)c1cc(-c2ccc(-c3cccc(S(C)(=O)=O)c3)cc2Cl)n(-c2cccnc2C(F)(F)F)n1 [Example 1385, 2-(5-(3-chloro-3′-(methylsulfonyl)biphenyl-4-yl)-1-(2-(trifluoromethyl)pyridin-3-yl)-1H-pyrazol-3-yl)propan-2-ol] |

Second part, the molecule before the results:

| Molecule | EC50 |
| --- | --- |
| CN(CC(N)=O)C(=O)c1cc(-c2ccc(-c3cccc(S(C)(=O)=O)c3)s2)n(-c2ccccc2Cl)n1 [Example 724, N-(2-amino-2-oxoethyl)-1-(2-chlorophenyl)-N-methyl-5-{5-[3-(methylsulfonyl)phenyl]-2-thienyl}-1H-pyrazole-3-carboxamide] | 1000 to 10000 nM |
| CCN(CC)CCN(C)C(=O)c1cc(-c2ccc(-c3cccc(S(C)(=O)=O)c3)s2)n(-c2ccccc2Cl)n1 [Example 1140, 1-(2-chlorophenyl)-N-[2-(diethylamino)ethyl]-N-methyl-5-{5-[3-(methylsulfonyl)phenyl]-2-thienyl}-1H-pyrazole-5-carboxamide] | 1000 to 10000 nM |
| CC(C)S(=O)(=O)c1cccc(-c2ccc(-c3cc(C(C)(C)O)nn3-c3ncccc3C(F)(F)F)s2)c1 [Example 1184, 2-{5-(5-{3-[(1-methylethyl)sulfonyl]phenyl}-2-thienyl)-1-[3-(trifluoromethyl)pyridin-2-yl]-1H-pyrazol-3-yl}propan-2-ol] | 1000 to 10000 nM |
| Cc1n[nH]c(C)c1CN(C)Cc1cc(-c2ccc(-c3cccc(S(C)(=O)=O)c3)s2)n(-c2ccccc2Cl)n1 [Example 568, 1-[1-(2-chlorophenyl)-5-{5-[3-(methylsulfonyl)phenyl]-2-thienyl}-1H-pyrazol-3-yl]-N-[(3,5-dimethyl-1H-pyrazol-4-yl)methyl}-N-methylmethanamine] | 1000 to 10000 nM |
| CS(=O)(=O)c1cccc(-c2ccc(-c3cc(C(F)(F)F)nn3-c3ccccc3Cl)cc2CN2CCOCC2)c1 [Example 1148] | 1000 to 10000 nM |
| CC(C)(C#N)c1cc(-c2ccc(-c3cccc(S(C)(=O)=O)c3)s2)n(-c2ccccc2Cl)n1 [Example 1134, 2-[1-(2-chlorophenyl)-5-{5-[3-(methylsulfonyl)phenyl]-2-thienyl}-1H-pyrazol-3-yl]-2-methylpropanenitrile] | < 1000 nM |
| CS(=O)(=O)c1cccc(-c2ccc(-c3cc(Cc4nnn[nH]4)nn3-c3ccccc3Cl)s2)c1 [Example 1136, 5-{[1-(2-chlorophenyl)-5-{5-[3-(methylsulfonyl)phenyl]-2-thienyl}-1H-pyrazol-3-yl]methyl}-1H-tetrazole] | 1000 to 10000 nM |
| CC(C)(O)c1cc(-c2ccc(-c3cccc(S(C)(=O)=O)c3)cc2)n(-c2ccccc2C(F)(F)F)n1 [Example 1201, 2-{5-[3′-(methylsulfonyl)biphenyl-4-yl]-1-[2-(trifluoromethyl)phenyl]-1H-pyrazol-3-yl}propan-2-ol] | < 1000 nM |
| CCN(Cc1ccncc1)Cc1cc(-c2ccc(-c3cccc(S(C)(=O)=O)c3)s2)n(-c2ccccc2Cl)n1 [Example 485, N-{[1-(2-chlorophenyl)-5-{5-[3-(methylsulfonyl)phenyl]-2-thienyl}-1H-pyrazol-3-yl]methyl}-N-(pyridin-4-ylmethyl)ethanamine] | < 1000 nM |
| CS(=O)(=O)c1cc(-c2ccc(-c3cc(C(F)(F)F)nn3-c3cc(Cl)ccc3Cl)s2)ccc1OCCO [Example 1255, 2-{[4-{5-[1-(2,5-dichlorophenyl)-3-(trifluoromethyl)-1H-pyrazol-5-yl]-2-thienyl}-2-(methylsulfonyl)phenyl]oxy}ethanol] | 1000 to 10000 nM |
| CS(=O)(=O)c1cccc(-c2ccc(-c3cc(C(=O)NCCCN4CCCC4)nn3-c3ccccc3Cl)s2)c1 [Example 733, 1-(2-chlorophenyl)-5-{5-[3-(methylsulfonyl)phenyl]-2-thienyl}-N-(3-pyrrolidin-1-ylpropyl)-1H-pyrazol-3-carboxamide] | < 1000 nM |
| COC(=O)c1cccc(-n2nc(C(=O)OC)cc2-c2ccc(-c3cccc(S(C)(=O)=O)c3)s2)c1 [Example 1220, methyl 1-{3-[(methyloxy)carbonyl]phenyl}-5-{5-[3-(methylsulfonyl)phenyl]-2-thienyl}-1H-pyrazole-3-carboxylate] | < 1000 nM |
| CC(C)(C(=O)O)c1cccc(-c2ccc(-c3cc(C(F)(F)F)nn3Cc3ccc(Cl)s3)s2)c1 [Example 1166, 2-[3-(5-{1-[(5-chloro-2-thienyl)methyl]-3-(trifluoromethyl)-1H-pyrazol-5-yl}-2-thienyl)phenyl]-2-methylpropanoic acid] | < 1000 nM |
| 1-(5-(1-(2-chlorophenyl)-3-(trifluoromethyl)-1H-pyrazol-5-yl)thiophen-2-ylsulfonyl)-4-methylpiperazine [Example 69] | < 1000 nM |
